Assay results as given in patent US6579469B1, “Cyanoacrylate solutions containing preservatives” (priority 1999, dated 2003).

Experiment: Compatibility of antimicrobial agent with sterilization procedures
Type: physicochemical
Conditions: comparison of Tables II and III
Text: Optionally, in embodiments of the present invention, the potential agent can be tested for its compatibility with one or more sterilization procedures. This optional screening procedure can also be performed by mixing an appropriate amount of the agent with a desired amount of the monomer composition and any other desired additives, and then subjecting the resultant composition to one or more sterilization procedures. Compatibility of the agent with one or more sterilization procedures is preferred in embodiments of the present invention because many uses of the polymerizable monomer compositions, such as many medical applications, require or prefer sterilized products. Following sterilization, the agent can exert antimicrobial action in killing or preventing growth of microbes that may be introduced into the pre-sterilized monomer compositions.

## Cc1ccc(C(C)C)c(O)c1 [thymol]
  Compatibility with forms of sterilization: more compatible with one form of sterilization than it is with another form of sterilization
